Measurements from patent publication US12709745B2 (priority 2012, dated 2026).

Experiments:
[1] = target: recombinant human WT SOD1 (Homo sapiens, UniProt P00441); assay type: biochemical
SOD1 = SOD1 (Homo sapiens, UniProt P00441); assay type: biochemical
DJ-1 [2] = target: T1, DJ-1 (Homo sapiens, UniProt Q99497); assay type: binding
WT DJ-1 = WT DJ-1 (Homo sapiens, UniProt Q99497); assay type: biochemical
DJ-1 [3] = target: T1, DJ-1; assay type: biochemical
[4] = in vivo; cited from earlier work

recombinant human WT SOD1, sequence (P00441 whole entry): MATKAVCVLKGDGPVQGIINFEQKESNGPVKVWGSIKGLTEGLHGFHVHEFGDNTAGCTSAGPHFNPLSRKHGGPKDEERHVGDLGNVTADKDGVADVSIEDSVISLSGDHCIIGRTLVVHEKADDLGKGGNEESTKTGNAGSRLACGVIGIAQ
T1 sequence (Q99497 whole entry): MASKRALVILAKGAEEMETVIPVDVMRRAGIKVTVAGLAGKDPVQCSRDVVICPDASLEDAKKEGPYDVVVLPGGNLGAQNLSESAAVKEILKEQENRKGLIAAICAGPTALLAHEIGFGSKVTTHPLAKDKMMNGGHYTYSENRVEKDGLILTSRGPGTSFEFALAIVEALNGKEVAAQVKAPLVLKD
WT DJ-1, sequence (Q99497 whole entry): as above
SOD1, sequence (P00441 whole entry): as the sequence (P00441 whole entry) above

SMILES	covalent dimerization of SOD1 [1]	denaturation temperature of DJ-1 (DJ-1 [2])	covalent dimerization of DJ-1 (WT DJ-1)	further results
OCC1(CO)CSSC1 [1,2-dithiolane-4,4-dimethanol]	capable of covalently dimerizing SOD1			
O=C1C=CC(=O)N1CCSSCCN1C(=O)C=CC1=O [DTME, dithio-bismaleimidocthane]				cross-linking of SOD1 monomers (SOD1): able to cross-link SOD1 monomers
[O-][S+]1CCCCS1 (stereo not shown) [NSC56224, 1-oxo-1,2-dithiane]	capable of covalently dimerizing SOD1	increase the measured denaturation temperature of DJ-1	covalent dimerizer of DJ-1	extent of cross-linking of SOD1 monomers [1]: able to cross-link the majority of SOD1 monomers in the sample; site of covalent linkage in DJ-1 dimer (DJ-1 [3]): covalently linked DJ-1 dimers at Cys53
NC(=O)NN=C1CSSC1 [NSC72268]		increase the measured denaturation temperature of DJ-1	specific covalent dimerizer of DJ-1	
CC(C)C[C@H](NC(=O)[C@H](Cc1ccccc1)NC(=O)c1cnccn1)B(O)O [bortezomib]				LD100 [4]: < 0.25 mg/kg
